Measured values as given in patent US20220268691A1, “MICROSCOPE ADAPTOR AND SAMPLE MOUNT FOR MAGNETICALLY ACTUATING SAMPLE” (University of Southern California, priority 2021, published 2022).

How the values were obtained:
[1] = test system: Pancreatic spheroids; experiment: Magnetogel toxicity study (viability of pancreatic spheroids in M-gel); format: cell-based; settings: M-gel/cells treated with 10 μL of gemcitabine; 96-well culture plate; sextuplet
Protocol: Pancreatic spheroids were grown on a 96-well culture plate. All measurements were performed in sextuplet (6×). The viability from these wells was compared against two controls: Matrigel/cells only, and M-gel/cells treated with 10 μL of gemcitabine (GEM), a common chemotherapeutic agent (as shown in FIG. 2B).

[2] = test system: PDAC; settings: GEM-based treatments; pancreatic cancer patients; cited from earlier work

## Nc1ccn([C@@H]2O[C@H](CO)[C@@H](O)C2(F)F)c(=O)n1 [GEM, gemcitabine]
[1]
  viability of cells (GEM control): cells killed
[2]
  response to treatment observed in patients: 37 % of patients
